We go through 67 molecules from the pKa sets of Baltruschat and Czodrowski (2020).

Usually pKa stands for the pH at which an ionisable group is half protonated. High values mean a weaker acid or stronger base, low ones a stronger acid or weaker base.

`c1c[nH+]ccn1`: the pKa (basic group) was -5.55. `NCCCc1ccncc1`: the pKa (basic group) was determined as 9.98. `Cc1cc(-c2ccccc2)n(-c2ccc(C(=O)O)cc2)n1` had a pKa (basic group) of 1.59.

Consider `Cc1cc([O-])ccc1O`, for which the pKa (acidic group) stood at 11.8. Molecule `CC(C)c1cccc(=O)c(O)c1Br` showed a pKa (acidic group) of 6.68. `CCC(O)CN(CC)CC(O)CC` (stereo not given) showed a pKa (basic group) of 9.2. Consider `Nc1nc2ccccc2c2ccccc12`, for which, where the note is “basic group”, the pKa came out at 7.31.

The molecule `OCC1CN2CCC1CC2` (stereo not given) returned a pKa (basic group) of 10.6. `C[C@@H]1CCC[C@H](C)N1` showed a pKa (basic group) of 11.

`N[C@@H](Cc1ccccc1)C(=O)[O-]`: the pKa (basic group) came out at 9.14. The molecule `Cc1ccnc(NS(=O)(=O)c2ccc(Cl)cc2)n1` displayed a pKa (acidic group) of 5.37.

In the case of `CC(C[NH3+])/C(N)=N/O` (stereo not given), where the note is “basic group”, the pKa was 3.65. Molecule `CCCC[C@H]([NH3+])C(=O)O` gave a pKa (acidic group) of 2.39. With `O=C(O)c1cccccc1=O`, the pKa (acidic group) worked out at 3.73. Where the note is “basic group”, `[NH3+]Cc1ccccn1` gave a pKa of 3.1. Where the note is “acidic group”, `Oc1ccc2c(c1)CCCC2` showed a pKa of 10.3. For `Cc1c2ccccc2c(CN2CCOCC2)c2ccccc12`, under “basic group”, the pKa is 6.6. `CC(C)=CC[C@@H]1C(=O)C(C(=O)CC(C)C)=C(O)[C@H]1O` registered a pKa (acidic group) of 2.35. The molecule `Cc1cn([C@@H]2C[C@@H](O)[C@H](CO)O2)c(=O)[nH]c1=S` showed a pKa (acidic group) of 8.8.

`O=C([O-])C(CO)[NH2+]Cc1cc(Cl)ccc1O` (stereo not given): the pKa (acidic group) was 7.95. `CCC(=O)C(c1ccccc1)(c1ccccc1)C(C)CN1CCOCC1` (stereo not given) yielded a pKa (basic group) of 7.12. Turning to `Nc1cccc2c(O)cccc12`, the pKa worked out at 10.3 (acidic group) and 4.15 (basic group). For the molecule `CCSC(C)C(=O)O` (stereo not given), the pKa (acidic group) was 3.8. Same read-out and setting: to `O=C1Oc2ccccc2C(=O)C1Cc1c([O-])c2ccccc2oc1=O` (stereo not given) belongs 8.3; to `Nc1nnc(S(N)(=O)=O)s1`, 7.69.

Under “basic group”, `c1ccc(Nc2nccs2)cc1` came in with a pKa of 4.33. `NCCC(=O)Oc1ccc([N+](=O)[O-])cc1` came in with a pKa (basic group) of 9.17. Molecule `CCN(CCO)CC(C)O` (stereo not given) displayed a pKa (basic group) of 8.9. `CC(=O)N1CS(=O)C[C@H]1C(=O)O` (stereo not given in full) had a pKa (acidic group) of 2.5. Take `Cc1ccc2c(c1)c1c3c(nccn32)CCC1`: the pKa (basic group) worked out at 6.24. Molecule `CCCCC(N)C(=O)[O-]` (stereo not given) had a pKa (basic group) of 9.89. In the case of `c1ccc2c(c1)nnc1ccccc12`, the pKa (basic group) was 2.2. As for `Oc1cc[nH+]c2ccccc12`, where the note is “acidic group”, the pKa is 2.27. `CC(=O)[n+]1ccc(C#N)cc1` gave a pKa (acidic group) of 1.98. For `NC(=O)C(N)Cc1c[nH]c2ccccc12` (stereo not given), the pKa (basic group) was found to be 7.55. In the case of `CC(N)CCCc1ccccc1` (stereo not given), the pKa (basic group) stood at 9.99. `Cn1c(=O)c2[nH]cnc2n(C)c1=O`: the pKa (basic group) worked out at 8.64. On the same count and under the same terms, to `Nc1cccc2cn[nH]c12` belongs 3.05.

`N#CCC(=O)O` displayed a pKa (acidic group) of 2.46. In turn, `Nc1ncc([N+](=O)[O-])s1` displayed a pKa (basic group) of 0.61. For `On1nnc2c(Cl)cccc21`, the pKa (acidic group) stood at 3.9. `Nc1ccc2c(c1)-c1ccccc1C2` returned a pKa (basic group) of 4.68. Take `CCOCCn1c(CN2CCCN(CCCCn3cccn3)CC2)nc2ccccc21`: under “basic group”, the pKa worked out at 9.2.

For `Cc1cc(C#N)cc(C)c1O`, the pKa (acidic group) was determined as 8.27. Turning to `[NH3+][C@@H](Cc1c[nH]c[nH+]1)C(=O)NCC(=O)O`, the pKa (acidic group) was determined as 2.4. In turn, `CCN1CCC[C@@H]1CNC(=O)c1c([O-])cccc1OC` displayed a pKa (basic group) of 9.54.

In the case of `COc1ccc(-c2ncc(-c3ccc(C)cc3)o2)cc1`, where the note is “basic group”, the pKa came out at 1.34. The molecule `NCCNC(=O)c1ccccc1` came in with a pKa (acidic group) of 9.13. On to `O=C(O)C(F)c1ccccc1` (stereo not given), for which, where the note is “acidic group”, the pKa stood at 2.45. Where the note is “basic group”, `Nc1ccc(Sc2ccc(N)cc2)cc1` displayed a pKa of 4.25. Same read-out and setting: to `CN(C)c1ccncn1` belongs 6.35; to `CCN(CC)CC(=O)Nc1c(C)cc(C)cc1C`, 7.9; to `OC[C@@H]1O[C@H](n2cnc3c([S-])ncnc32)[C@@H](O)[C@H]1O`, 7.63. As for `Nc1ccc[nH+]c1C(=O)O`, for the setting “acidic group”, the pKa turned out to be 1.33.

With `NCCCCCC(=O)[O-]`, the pKa (basic group) came out at 10.8. With `S=C(NC(=S)c1ccccc1)Nc1ccccc1`, the pKa (acidic group) is 10.7. The molecule `Oc1ccc(Nc2ccc(O)cc2)cc1` gave a pKa (acidic group) of 9.44.

`O=C(O)/C=C(\I)c1ccccc1` returned a pKa (acidic group) of 3.4. For `CCNc1cc[nH+]c(S)n1`, the pKa (acidic group) stood at 3.1. Under “basic group”, `COc1ccc2c3c1O[C@H]1CCC[C@H]4[C@@H]([C@H]2O)N(C)CC[C@]314` yielded a pKa of 7.71.

On to `O=C(O)c1cc2ccccc2s1`, for which the pKa (acidic group) stood at 3.1. On the same count and under the same terms, to `O=C1CCc2ccc(Cl)cc2C1` belongs 12.3. For the molecule `COc1ccc(F)cc1C(=O)N[C@@H]1C[C@H]2CC[C@@H](C1)N2Cc1ccccc1`, the pKa (basic group) stood at 8.82. As to `CC(=O)N=C(N(C)C)N(C)C`, the pKa (basic group) was 7.5. `Nc1ncnc2[nH]cnc12` gave a pKa (acidic group) of 9.86 and a pKa (basic group) of 4.26. Take `CCCCCCCCCCCCCCCNCCCCCCCCCCCCCCC`: the pKa (basic group) was 11. For the molecule `Cc1ccc(C(=O)O)s1`, the pKa runs as follows: (acidic group) 3.76; (basic group) -0.57.
